Test results reported in patent US6624196B2, “Benzene butyric acids and their derivatives as inhibitors of matrix metalloproteinases” (Warner-Lambert Company, priority 1999, dated 2003).

Columns and labels:
[1] = target: T1, MMP-2CD (gelatinase A catalytic domain) (Homo sapiens, UniProt P08253, DEL220-393); experiment: Thiopeptolide substrate assay, gelatinase A catalytic domain; assay type: biochemical; settings: for inhibition at 10 µM: read-out: % inhibition of the enzyme MMP-2CD; for IC50: thiopeptolide substrate, catalytic domain
T1 construct: Experiments were carried out with the catalytic domains of the proteinases
T1 sequence (P08253 with tags, fused parts or gaps DEL220-393): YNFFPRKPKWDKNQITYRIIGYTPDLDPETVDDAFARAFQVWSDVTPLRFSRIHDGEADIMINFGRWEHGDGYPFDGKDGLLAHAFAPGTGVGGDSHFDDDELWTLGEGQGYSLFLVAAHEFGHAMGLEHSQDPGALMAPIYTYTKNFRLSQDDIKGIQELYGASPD
Description: (§1) Experiments were carried out with the catalytic domains of the proteinases. […] IC50 values were determined using a thiopeptolide substrate, Ac-Pro-Leu-Gly-thioester-Leu-Leu-Gly-OEt (ye Q. -Z., Johnson L. L., Hupe D. J., and Baragi V., “Purification and Characterization of the Human Stromelysin Catalytic Domain Expressed in Escherichia coli,” Biochemistry, 1992;31:11231-11235; ye Q. -Z., Johnson L. L., yu A. E., and Hupe D., “Reconstructed 19 kDa catalytic domain of gelatinase A is an active proteinase,” Biochemistry, 1995;34:4702-4708.) MMP-13CD was expressed from a synthetic gene and purified from Escherichia coli cell culture according to a previously described method (ye Q. -Z., Johnson L. L., and Baragi V., “Gene synthesis and expression in E. coli for PUMP, a human matrix metalloproteinase,” Biochemical and Biophysical Research Communications, 1992;186:143-149.)

[2] = target: T2, MMP-3CD (stromelysin-1 catalytic domain) (Homo sapiens, UniProt P08254); experiment: Thiopeptolide substrate assay, stromelysin-1 catalytic domain; assay type: biochemical; settings: for inhibition at 10 µM: read-out: % inhibition of the enzyme MMP-3CD; for IC50: thiopeptolide substrate, catalytic domain
T2 construct: Experiments were carried out with the catalytic domains of the proteinases; made in house; host or cells: Escherichia coli
T2 sequence (P08254 100-272 limits assumed): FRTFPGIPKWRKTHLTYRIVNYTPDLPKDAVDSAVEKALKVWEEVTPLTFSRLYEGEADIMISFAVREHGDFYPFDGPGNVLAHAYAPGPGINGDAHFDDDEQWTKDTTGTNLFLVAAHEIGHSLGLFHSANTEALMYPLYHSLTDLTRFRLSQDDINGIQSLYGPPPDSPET
Description: as §1

[3] = target: T3, MMP-13CD (collagenase-3 catalytic domain) (Homo sapiens, UniProt P45452); experiment: Thiopeptolide substrate assay, collagenase-3 catalytic domain; assay type: biochemical; settings: for inhibition at 10 µM: read-out: % inhibition of the enzyme MMP-13CD; for IC50: thiopeptolide substrate, catalytic domain
T3 construct: Experiments were carried out with the catalytic domains of the proteinases; made in house; host or cells: Escherichia coli
Description: as §1

[4] = 10 μM concentration of inhibitor (footnote a, Examples 8 through 25)

Row | Molecule | inhibition at 10 µM [1, 4] [%] | inhibition at 10 µM [2, 4] [%] | inhibition at 10 µM [3, 4] [%] | IC50 [1] [nM] | IC50 [2] [µM] | other results
1 | CCCCCCCCCC(=O)Nc1ccc(C(=O)CCC(=O)O)cc1 [Example 23] | – | – | – | – | – | % inhibition of the enzyme MMP-2CD [1, 4]: 54%; % inhibition of the enzyme MMP-3CD [2, 4]: 39%; % inhibition of the enzyme MMP-13CD [3, 4]: 0%
2 | 4-[4-(Carboxy-acetylamino)-phenyl]-4-oxo-butyric acid [Example 36] | – | – | – | 41000 | 17 | –
3 | O=C(O)CCC(=O)c1ccc(NC(=O)C2CCCCC2)cc1 [Example 7, 4-[4-(Cyclohexane-carbonyllamino)-phenyl]-4-oxo-butyric acid] | – | – | – | – | 20 | melting point: 195 to 198 °C
4 | O=C(O)CCC(=O)c1ccc(NC(=O)c2cccc(F)c2)cc1 [Example 4, 4-[4-(3-Fluoro-benzoylamino)-phenyl]-4-oxo-butyric acid] | – | – | – | 1900 | 6.2 | melting point: 239 to 241 °C
5 | O=C(O)CCC(=O)c1ccc(NC(=O)c2ccc(F)cc2)cc1 [Example 6, 4-[4-(4-Fluoro-benzoylamino)-phenyl]-4-oxo-butyric acid] | – | – | – | 1700 | 2.8 | IC50 [3]: 85 µM; melting point: 253 to 255 °C
6 | CCCCC(=O)Nc1ccc(C(=O)CCC(=O)O)cc1 [Example 3, 4—oxo-4-(4-pentanoylamino-phenyl)-butyric acid] | – | – | – | 9500 | 8.15 | melting point: 153 to 155 °C
7 | 4-[4-(Benzoylamino)-phenyl]-4-oxo-butyric acid [Example 28] | – | – | – | 110 | 0.55 | IC50 [3]: 17 µM
8 | CCCCCCC(=O)Nc1ccc(C(=O)CCC(=O)O)cc1 [Example 15, 4-[4-(Heptanoylamino)-phenyl]-4-oxo-butyric acid] | 83 | 70 | 11 | – | – | –
9 | CCC(=O)Nc1ccc(C(=O)CCC(=O)O)cc1 [Example 11, 4—oxo-4-[4-(propionylamino)-phenyl]-butyric acid] | 46 | 21 | 9 | – | – | –
10 | CCCCCCCC(=O)Nc1ccc(C(=O)CCC(=O)O)cc1 [Example 10, 4-[4-(Octanoylamino)-phenyl]-4-oxo-butyric acid] | 79 | 66 | 8 | – | – | –
11 | COc1cccc(C(=O)Nc2ccc(C(=O)CCC(=O)O)cc2)c1 [Example 12, 4-[4-(3-Methoxy-benzoylamino)-phenyl]-4-oxo-butyric acid] | 75 | 31 | 11 | – | – | –
12 | CCCCCCCCC(=O)Nc1ccc(C(=O)CCC(=O)O)cc1 [Example 9, 4-[4-(Nonanoylamino)-phenyl]-4-oxo-butyric acid] | 85 | 75 | 3 | – | – | –
13 | Cc1ccc(C(=O)Nc2ccc(C(=O)CCC(=O)O)cc2)cc1 [Example 1, 4-[4-(4-Methyl-benzoylamino)-phenyl]-4-oxo-butyric acid] | – | – | – | 220 | 1.55 | IC50 [3]: 5.8 µM
14 | CCCCOc1ccc(C(=O)Nc2ccc(C(=O)CCC(=O)O)cc2)cc1 [Example 17, 4-[4-(4-Butoxy-benzoylamino)-phenyl]-4-oxo-butyric acid] | 97 | 78 | 65 | – | – | –
15 | O=C(O)CCC(=O)c1ccc(NC(=O)c2ccc(Cl)cc2Cl)cc1 [Example 13, 4-[4-(2,4-Dichloro-benzoylamino)-phenyl]-4-oxo-butyric acid] | 26 | 11 | 0 | – | – | –
16 | O=C(O)CCC(=O)c1ccc(NC(=O)c2ccccc2F)cc1 [Example 5, 4-[4-(2-Fluoro-benzoylamino)-phenyl]-4-oxo-butyric acid] | – | – | – | 1900 | 9.8 | melting point: 191 to 193 °C
17 | O=C(O)CCC(=O)c1ccc(NC(=O)CCCc2ccc(Br)cc2)cc1 [Example 14, 4-{4-[4-(4-Bromo-phenyl)-butyrylamino]-phenyl}-4-oxo-butyric acid] | 26 | 48 | 7 | – | – | –
18 | O=C(O)CCC(=O)c1ccc(NC(=O)c2cccnc2)cc1 [Example 8, 4-[4-(Pyridin-3-yl-carbonylamino)-phenyl]-4-oxo-butyric acid] | 15 | 3 | 0 | – | – | –
19 | 4-Hydroxyimino-4-[(4-methyl-benzoyl)amino-phenyl]-butyric acid [Example 2] | – | – | – | 410 | 1.1 | IC50 [3]: 3.8 µM

Further lines, with some results ahead:

Row | inhibition at 10 µM [1, 4] [%] | inhibition at 10 µM [2, 4] [%] | inhibition at 10 µM [3, 4] [%] | IC50 [1] [nM] | IC50 [2] [µM] | Molecule | other results
20 | 86 | 72 | 9 | – | – | O=C(O)CCC(=O)c1ccc(NC(=O)C=Cc2ccccc2)cc1 [Example 19, 4-[4-(Cinnamoylamino)-phenyl]-4-oxo-butyric acid] | –
21 | – | – | – | 930 | 5 | O=C(O)CCC(=O)c1ccc(NC(=O)c2ccc(F)cc2F)cc1 [Example 30, 4-[4-(2,4-Difluoro-benzoylamino)-phenyl]-4-oxo-butyric acid] | –
22 | – | – | – | 130 | 1.7 | O=C(O)CCC(=O)c1ccc(NC(=O)c2cccs2)cc1 [Example 31, 4—oxo-4-[4-(thiophen-2-yl-carbonylamino)-phenyl]-butyric acid] | IC50 [3]: 19 µM
23 | – | – | – | 120 | 0.82 | O=C(O)CCC(=O)c1ccc(NC(=O)c2ccc(Cl)cc2)cc1 [Example 26, 4-[4-(4—Chloro-benzoylamino)-phenl]-4-oxo-butyric acid] | IC50 [3]: 24 µM
24 | 18 | 13 | 0 | – | – | COc1ccccc1C(=O)Nc1ccc(C(=O)CCC(=O)O)cc1 [Example 25, 4-[4-(2-Methoxy-benzoylamino)-phenyl]-4-oxo-butyric acid] | –
25 | 82 | 38 | 16 | – | – | O=C(O)CCC(=O)c1ccc(NC(=O)c2ccc(Cl)c([N+](=O)[O-])c2)cc1 [Example 18, 4-[4-(4—Chloro-3-nitro-benzoylamino)-phenyl]-4-oxo-butyric acid] | –
26 | 62 | 35 | 0 | – | – | CCCC(=O)Nc1ccc(C(=O)CCC(=O)O)cc1 [Example 22, 4-[4-(Butyrylamino)-phenyl]-4-oxo-butyric acid] | –
27 | – | – | – | 38000 | 13 | O=C(O)CCC(=O)Nc1ccc(C(=O)CCC(=O)O)cc1 [Example 35, 4-[4-(3—Carboxy-propionylamino)-phenyl]-4-oxo-butyric acid] | –
28 | – | – | – | – | 6.6 | O=C(O)CCC(=O)c1ccc(NC(=O)CCc2ccccc2)cc1 [Example 34, 4—oxo-4-[4-(3-phenyl-propionylamino)-phenyl]-butyric acid] | –
29 | – | – | – | 460 | 2.4 | O=C(O)CCC(=O)c1ccc(NC(=O)c2ccc([N+](=O)[O-])cc2)cc1 [Example 29, 4-[4-(4-Nitro-benzoylamino)-phenyl]-4-oxo-butyric acid] | IC50 [3]: 40 µM
30 | 97 | 85 | 60 | – | – | CCc1ccc(C(=O)Nc2ccc(C(=O)CCC(=O)O)cc2)cc1 [Example 16, 4-[4-(4-Ethyl-benzoylamino)-phenyl]-4-oxo-butyric acid] | –
31 | – | – | – | 910 | 19 | O=C(O)CCC(=O)c1ccc(NC(=O)c2ccco2)cc1 [Example 32, 4-[4-(2-Furoylamino)-phenyl]-4-oxo-butyric acid] | –
32 | 78 | 23 | 8 | – | – | O=C(O)CCC(=O)c1ccc(NC(=O)c2cccc([N+](=O)[O-])c2)cc1 [Example 21, 4-[4-(3-Nitro-benzoylamino)-phenyl]-4-oxo-butyric acid] | –
33 | 93 | 81 | 30 | – | – | O=C(O)CCC(=O)c1ccc(NC(=O)c2ccc(Br)cc2)cc1 [Example 20, 4-[4-(4-Bromo-benzoylamino)-phenyl]-4-oxo-butyric acid] | –
34 | – | – | – | 70 | 0.34 | COc1ccc(C(=O)Nc2ccc(C(=O)CCC(=O)O)cc2)cc1 [Example 27, 4-[4-(4-Methoxy-benzoylamino)-phenyl]-4-oxo-butyric acid] | IC50 [3]: 9.8 µM
35 | – | – | – | 52000 | 24 | O=C(O)CCC(=O)c1ccc(NC(=O)Cc2ccccc2)cc1 [Example 33, 4—oxo-4-[4-(phenyl-acetylamino)-phenyl]-butyric acid] | –
36 | 15 | 4 | 0 | – | – | COc1cc(OC)cc(C(=O)Nc2ccc(C(=O)CCC(=O)O)cc2)c1 [Example 24, 4-[4-(3,5-Dimethoxy-benzoylamino)-phenyl]-4-oxo-butyric acid] | –
